Tested on: Human colon cancer HT-29 cells
Assay: Pharmacodynamic experiment in mice, subcutaneous HT-29 tumor
Type: in vivo
Details: 20 mpk BID intragastric, after 16 days of administration, HT-29 subcutaneous tumor in mice
Description: Human colon cancer HT-29 cells were cultured in monolayer in vitro under the following conditions: DMEM medium containing 10% fetal bovine serum and 1% penicillin and streptomycin, at 37° C. with 5% CO2. The cells were digested with trypsin three times a week for passaging. When the saturation degree of the cells was 80%-90%, the cells were collected, counted, and inoculated, 0.1 mL (1×10^6 cells) of HT-29 cells were subcutaneously inoculated on the tight back of each mouse. On day 11 after inoculation of the cells, the mean tumor volume reached 325 mm^3. The mice were randomly grouped for administration (the animals were divided into an administration group and a control group, with 6 animals in each group). The day of grouping was defined as d0, and intragastric administration was started on d1. The administration was performed twice daily at an administration volume of 10 mL/kg. Vehicle control was adminstered to the control group. The tumor volume was measured 2-3 times per week, and meanwhile, the mice were weighed and the data were recorded; daily observations were made to record the body surface signs of the mice. After the experiment was completed, the tumors were removed, weighed, and photographed for recording.
Calculation formula for tumor volume: […]

| Compound | TGI [%] |
| --- | --- |
| CS(=O)(=O)Nc1ccc(C(=O)Nc2cn3ccnc3c(N3CCC(F)(F)CC3)n2)c(N2CC3CCC(C3)C2)c1 [Compound 19] | 111.82 |
| O=C(Nc1cn2c(F)cnc2c(N2CCC(F)(F)CC2)n1)c1ccc(NS(=O)(=O)CCO)cc1N1CCC2(CC1)CC2 [Compound 34] | 105.10 |
| CS(=O)(=O)Nc1ccc(C(=O)Nc2cc3cc[nH]c3c(N3CCC(F)(F)CC3)n2)c(N2CCC3(CC2)CC3)c1 [Compound 47] | 108.84 |

Target: hERG potassium channel (Homo sapiens (Human), UniProt Q12809)
Sequence (Q12809 whole entry): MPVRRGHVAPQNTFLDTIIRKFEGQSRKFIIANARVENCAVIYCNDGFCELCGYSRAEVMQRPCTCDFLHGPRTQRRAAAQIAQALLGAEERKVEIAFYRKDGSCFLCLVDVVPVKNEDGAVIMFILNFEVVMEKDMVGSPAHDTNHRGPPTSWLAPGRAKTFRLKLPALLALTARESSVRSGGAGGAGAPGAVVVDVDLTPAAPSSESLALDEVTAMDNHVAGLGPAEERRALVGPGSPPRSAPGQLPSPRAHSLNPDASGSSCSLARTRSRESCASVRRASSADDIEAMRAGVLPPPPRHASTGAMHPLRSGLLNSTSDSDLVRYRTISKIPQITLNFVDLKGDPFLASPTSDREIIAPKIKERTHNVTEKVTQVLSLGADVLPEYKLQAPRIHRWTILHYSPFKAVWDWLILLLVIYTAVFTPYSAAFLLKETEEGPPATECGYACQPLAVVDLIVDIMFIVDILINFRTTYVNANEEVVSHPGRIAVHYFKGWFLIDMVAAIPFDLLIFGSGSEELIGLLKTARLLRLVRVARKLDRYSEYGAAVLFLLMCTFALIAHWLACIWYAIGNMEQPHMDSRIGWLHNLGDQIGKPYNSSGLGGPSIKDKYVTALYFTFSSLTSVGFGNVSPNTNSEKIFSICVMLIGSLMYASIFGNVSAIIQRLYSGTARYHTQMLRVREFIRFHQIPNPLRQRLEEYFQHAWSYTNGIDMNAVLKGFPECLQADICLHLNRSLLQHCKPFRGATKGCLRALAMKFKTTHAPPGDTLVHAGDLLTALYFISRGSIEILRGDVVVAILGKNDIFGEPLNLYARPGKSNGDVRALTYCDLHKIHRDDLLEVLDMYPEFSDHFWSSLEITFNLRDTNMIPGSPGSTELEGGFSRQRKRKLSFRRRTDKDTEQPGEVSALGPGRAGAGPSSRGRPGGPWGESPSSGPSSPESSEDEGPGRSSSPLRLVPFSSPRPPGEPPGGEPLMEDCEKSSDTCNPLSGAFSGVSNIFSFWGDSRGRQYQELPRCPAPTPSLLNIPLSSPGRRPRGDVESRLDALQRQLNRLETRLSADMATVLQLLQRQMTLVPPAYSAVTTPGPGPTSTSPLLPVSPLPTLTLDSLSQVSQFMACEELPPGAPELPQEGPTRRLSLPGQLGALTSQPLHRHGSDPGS
Assay: hERG whole-cell patch clamp (Qpatch) in HEK293 cells
Type: cell-based
Details: top concentration 30 μM
Description: HEK293 cells were cultured in a DMEM medium containing 10% fetal bovine serum and 0.8 mg/mL G418 at 37° C. with 5% CO2. The cells were digested by TrypLE™ Express and then centrifuged. The cell density was adjusted to 2×10^6 cells/ml. The cells were then gently mixed for 15-20 min using a shaker equilibrated at room temperature, and subjected to patch clamping on a machine. The medium of the prepared cells was replaced with extracellular fluid. The intracellular fluid and the extracellular fluid were taken from the fluid pool, and added to the intracellular fluid pool and the cell and test substance pool of the QPlate chip, respectively. The voltage stimulation of the whole-cell hERG potassium current was recorded by the whole-cell patch clamp, and the experimental data was collected and stored by Qpatch. The test compound was 3-fold diluted starting from 30 μM to obtain 6 concentration points, each for two administrations over a period of at least 5 min. The current detected in compound-free extracellular fluid for each cell served as its own control group, and the detection was repeated at least twice independently using two cells per concentration. All electrophysiological experiments were performed at […].
For data analysis, the current after the action of each drug concentration and the current of the blank control were standardize
and then the inhibition rate corresponding to each drug concentration was calculated
The mean and standard error were calculated for each concentration, and the half maximal inhibitory concentration of each compound was calculated:
The dose-dependent effect was subjected to non-linear fitting using the above equation, where Y represents the inhibition rate, C represents the concentration of the test substance, IC50 is the half maximal inhibitory concentration, and HillSlope represents the Hill coefficient. Curve fitting and calculation of IC50 were performed using the Graphpad software.

| Compound | IC50 [µM] |
| --- | --- |
| O=C(Nc1cc2ccccc2c(N2CCC(F)(F)CC2)n1)c1ccc(NS(=O)(=O)CCO)cc1N1CCC2(CC1)CC2 [Compound 6] | > 30 |
| O=C(Nc1cn2ccnc2c(N2CCC(F)(F)CC2)n1)c1ccc(NS(=O)(=O)CCO)cc1N1CCC2(CC1)CC2 [Compound 8] | > 30 |
| CS(=O)(=O)Nc1ccc(C(=O)Nc2cn3ccnc3c(N3CCC(F)(F)CC3)n2)c(N2CC3CCC(C3)C2)c1 [Compound 19] | > 30 |
| O=C(Nc1cc2cccnc2c(N2CCC(F)(F)CC2)n1)c1ccc(NS(=O)(=O)CCO)cc1N1CCC2(CC1)CC2 [Compound 21] | > 30 |
